Reference: patent US4346087A, “Antibacterial surface active agent containing azaalkenelactam” (priority 1979, dated 1982)
Values after ≈ are worked out from the molar mass of the structure shown. Where two headings read alike, the source gives them in different places.

What was measured:
[1] = tested on: Pasteurella multocida; experiment: MIC against Pasteurella multocida; type: cell-based
From the text: (§1) Below are described the antibacterial activities of the compounds in the compositions according to this invention. The results of antibacterial activity tests on the N-alkyl-substituted azaalkenelactams and their derivatives having a carboxylate radical of Examples 1 to 70 were as shown in Tables 1 to 3.
(§2) The testing method complied with the standard method of Japan Sociaty of Chemotherapy.

[2] = tested on: Streptococcus faecalis; experiment: MIC against Streptococcus faecalis; type: cell-based
From the text: as §1, §2

[3] = tested on: Staphylococcus aureus FDA 209P; experiment: MIC against Staphylococcus aureus FDA 209P; type: cell-based
From the text: (§3) Below are described the antibacterial activities of the compounds in the compositions according to this invention.
as §2

[4] = tested on: Staphylococcus epidermidis; experiment: MIC against Staphylococcus epidermidis; type: cell-based
From the text: as §1, §2

[5] = tested on: Escherichia coli NIHJ; experiment: MIC against Escherichia coli NIHJ; type: cell-based
From the text: as §3, §2

[6] = tested on: Salmonella typhinurium; experiment: microbe, parasite or virus in culture; type: cell-based, Salmonella typhimurium; details: Table 3, heart infusion agar, 37° C., 24 hours, read-out: MIC
From the text: as §1, §2

[7] = tested on: Pseudomonas aruginosa IFO 3443; experiment: MIC against Pseudomonas aeruginosa; type: cell-based
From the text: as §1, §2

[8] = tested on: Desulfovibrio desulfuricans IFO 13699; experiment: MIC against Desulfovibrio desulfuricans; type: cell-based
From the text: as §3, §2

[9] = tested on: Bacillus subtilis ATCC 6633; experiment: MIC against Bacillus subtilis ATCC 6633; type: cell-based
From the text: as §1, §2

[10] = Pasteurella multocida, Table 3, heart infusion agar, 37° C., 24 hours, read-out: MIC
[11] = Staphylococcus aureus, FDA209P, 24 h
[12] = Staphylococcus epidermidis, Table 3, heart infusion agar, 37° C., 24 hours, read-out: MIC
[13] = Desulfovibrio desulfuricans, IFO13699, 24 h
[14] = Bacillus subtilis, ATCC6633, 24 h
[15] = Enterococcus faecalis, Table 3, heart infusion agar, 37° C., 24 hours, read-out: MIC
[16] = Staphylococcus aureus, FDA209P, Table 1, azaalkenelactams, heart infusion agar, 37° C., 24 hours, read-out: MIC
[17] = Staphylococcus epidermidis, 24 h
[18] = Desulfovibrio desulfuricans, IFO13699, Table 1, azaalkenelactams, heart infusion agar, 37° C., 24 hours, read-out: MIC
[19] = Bacillus subtilis, ATCC6633, Table 3, heart infusion agar, 37° C., 24 hours, read-out: MIC
[20] = Pseudomonas, IFO3443, Table 3, heart infusion agar, 37° C., 24 hours, read-out: MIC
[21] = Escherichia coli, Table 1, azaalkenelactams, heart infusion agar, 37° C., 24 hours, read-out: MIC
[22] = Table 3, heart infusion agar, 37° C., 24 hours
[23] = Table 1, azaalkenelactams, heart infusion agar, 37° C., 24 hours

| Molecule | MIC [1, 10] | MIC ([2]; Enterococcus faecalis, 24 h) | MIC [4, 12] | MIC ([5]; Escherichia coli, 24 h) | MIC [6] | MIC ([7]; Pseudomonas, IFO3443, 24 h) | MIC [9, 14] | MIC ([1]; Pasteurella multocida, 24 h) | MIC [2, 15] | MIC [3, 16] | MIC [8, 18] | MIC [9, 19] | MIC [7, 20] | also measured |
| --- | --- | --- | --- | --- | --- | --- | --- | --- | --- | --- | --- | --- | --- | --- |
| CCCCCCCCCCCCCCC(O)CNCCN1CCCN=CC(C)(C)C1=O (stereo not shown) [Example 61, 1-(2-hydroxyhexadecyl)aminoethyl-3,3-dimethyl-6,7,8-trihydro-1,5-diazocin-5-one] | < 1.56 mg/L | 6.25 mg/L (≈ 14.3 µM) | 1.56 mg/L (≈ 3.56 µM) | 25 mg/L (≈ 57.1 µM) | 3.12 mg/L (≈ 7.13 µM) | 200 mg/L (≈ 457 µM) | 3.12 mg/L (≈ 7.13 µM) |  |  |  |  |  |  | MIC [3, 11]: 6.25 mg/L (≈ 14.3 µM); MIC [8, 13]: 6.25 mg/L (≈ 14.3 µM) |
| CCCCCCCCCCCCCCNCCN1CCCN=CC(C)(C)C1=O [Example 60, 1-tetradecylaminoethyl-3,3-dimethyl-6,7,8-trihydro-1,5-diazocin-5-one] | < 1.56 mg/L | 6.25 mg/L (≈ 15.9 µM) | 1.56 mg/L (≈ 3.96 µM) | 12.5 mg/L (≈ 31.8 µM) | 3.12 mg/L (≈ 7.93 µM) | 100 mg/L (≈ 254 µM) | 3.12 mg/L (≈ 7.93 µM) |  |  |  |  |  |  | MIC [3, 11]: 6.25 mg/L (≈ 15.9 µM); MIC [8, 13]: 6.25 mg/L (≈ 15.9 µM) |
| CCCCCCCCCCCCCCNCCN1CCN=CC(C)(C)C1=O [Example 58, 4-tetradecylaminoethyl-6,6-dimethyl-3-hydro-2H-1,4-diazepin-5-one] |  |  |  | 6.25 mg/L (≈ 16.5 µM) | 1.56 mg/L (≈ 4.11 µM) | 50 mg/L (≈ 132 µM) |  | < 1.56 mg/L | 3.12 mg/L (≈ 8.22 µM) | 3.12 mg/L (≈ 8.22 µM) | 3.12 mg/L (≈ 8.22 µM) | 3.12 mg/L (≈ 8.22 µM) |  | MIC [4, 17]: < 1.56 mg/L |
| CCCCCCCCCCCCCCNCCN1CCN=C(C)CC1=O [Example 35, 4-tetradecylaminoethyl-7-methyl-3,6-dihydro-2H-1,4-diazepin-5-one] |  |  |  | 6.25 mg/L (≈ 17.1 µM) | 1.56 mg/L (≈ 4.27 µM) |  |  | < 1.56 mg/L | 3.12 mg/L (≈ 8.53 µM) | 1.56 mg/L (≈ 4.27 µM) | 1.56 mg/L (≈ 4.27 µM) | 3.12 mg/L (≈ 8.53 µM) | 54 mg/L (≈ 148 µM) | MIC [4, 17]: < 1.56 mg/L |
| CCCCCCCCCCCCNCCN1CCN=C(C)CC1=O [Example 2, 4-dodecylaminoethyl-7-methyl-3,6-dihydro-2H-1,4-diazepin-5-one] |  |  | 1.56 mg/L (≈ 4.62 µM) |  | 3.12 mg/L (≈ 9.24 µM) |  |  | < 1.56 mg/L | 12.5 mg/L (≈ 37 µM) | 12.5 mg/L (≈ 37 µM) | 12.5 mg/L (≈ 37 µM) | 12.5 mg/L (≈ 37 µM) | 100 mg/L (≈ 296 µM) | MIC [5, 21]: 25 mg/L (≈ 74.1 µM) |
| CCCCCCCCCCCCCCNCCN1CCN=CCCC1=O [Example 53, 4-tetradecylaminoethyl-2,3,6,7-tetrahydro-1,4-diazocin-5-one] | < 1.56 mg/L | 6.25 mg/L (≈ 17.1 µM) | 1.56 mg/L (≈ 4.27 µM) | 6.25 mg/L (≈ 17.1 µM) | 3.12 mg/L (≈ 8.53 µM) | 100 mg/L (≈ 274 µM) | 3.12 mg/L (≈ 8.53 µM) |  |  | 1.56 mg/L (≈ 4.27 µM) | 3.12 mg/L (≈ 8.53 µM) |  |  |  |
| CCCCCCCCCCCCCCNCCN1CCN=CC(C)C1=O (stereo not shown) [Example 40, 4-tetradecylaminoethyl-6-methyl-3,6-dihydro-2H-1,4-diazepin-5-one] | < 1.56 mg/L | 3.12 mg/L (≈ 8.53 µM) | < 1.56 mg/L | 6.25 mg/L (≈ 17.1 µM) | 3.12 mg/L (≈ 8.53 µM) | 50 mg/L (≈ 137 µM) | 3.12 mg/L (≈ 8.53 µM) |  |  | 1.56 mg/L (≈ 4.27 µM) | 1.56 mg/L (≈ 4.27 µM) |  |  |  |
| 4-(2-hydroxyhexadecyl)aminoethyl-6-methyl-3,6-dihydro-2H-1,4-diazepin-5-one [Example 41] |  |  |  |  |  |  |  |  |  |  |  |  |  | MIC [1, 22]: < 1.56 mg/L; MIC [2, 22]: 6.25 mg/L; MIC [3, 23]: 3.12 mg/L; MIC [4, 22]: 1.56 mg/L; MIC [5]: 25 mg/L; MIC [7, 22]: 100 mg/L; MIC [8, 23]: 3.12 mg/L; MIC [9, 22]: 3.12 mg/L |
| CCCCCCCCCCCCCCC(O)CNCCN1CCCN=CC(C)C1=O (stereo not shown) [Example 49, 1-(2-hydroxyhexadecyl)aminoethyl-3-methyl-3,6,7,8-tetrahydro-1,5-diazocin-2-one] |  |  |  |  |  |  |  |  |  |  |  |  |  | MIC [1, 22]: < 1.56 mg/L; MIC [2, 22]: 6.25 mg/L (≈ 14.8 µM); MIC [3, 23]: 3.12 mg/L (≈ 7.36 µM); MIC [4, 22]: 1.56 mg/L (≈ 3.68 µM); MIC [5]: 25 mg/L (≈ 59 µM); MIC [7, 22]: 200 mg/L (≈ 472 µM); MIC [8, 23]: 3.12 mg/L (≈ 7.36 µM); MIC [9, 22]: 3.12 mg/L (≈ 7.36 µM) |
| CCCCCCCCCCCCCCC(O)CNCCN1CCN=CC(C)(C)C1=O (stereo not shown) [Example 59, 4-(2-hydroxyhexadecyl)aminoethyl-6,6-dimethyl-3-hydro-2H-1,4-diazepin-5-one] | < 1.56 mg/L |  | 1.56 mg/L (≈ 3.68 µM) |  | 3.12 mg/L (≈ 7.36 µM) |  | 3.12 mg/L (≈ 7.36 µM) |  | 6.25 mg/L (≈ 14.8 µM) | 6.25 mg/L (≈ 14.8 µM) | 3.12 mg/L (≈ 7.36 µM) |  | 100 mg/L (≈ 236 µM) | MIC [5, 21]: 25 mg/L (≈ 59 µM) |
